From patent US11584710B2, “Compounds for treating infections” (HORITZONTS TECNOLOGICS HUNGARY KORLÁTOLT FELELOSSÉGU …, priority 2017, dated 2023)

How the values were obtained:
Format in all cases: cell-based
A. baumannii = test: Kirby-Bauer disk diffusion susceptibility test; conditions: 300 μg/disc
Method: (§1) Bacterial strains, from clinical origin, were supplied by the National Center for Microbiology, Institute of Health Carlos III (Majadahonda, Madrid). They are detailed in Table 1.
(§2) Bacterial cells suspension in sterile saline was prepared from a culture of 24-72 h, depending on bacterial species, in Mueller-Hinton Agar with 5% sheep blood. Each suspension was adjusted to a fixed size inoculum of 1-5×10^8 CFU/ml with a spectrophotometer (Ferraro, MJ National Committee for Clinical Laboratory Standards. 2000).
(§3) Kirby-Bauer disk diffusion susceptibility test protocol was utilized to determine the sensitivity or resistance of pathogenic bacteria against the compounds and others antibiotics. The absence of growth around the disks is an indirect measure of the ability of this compound to inhibit an organism (Kirby, W., et al., Antibiotics Annu. 1956-1957:892). After 18 to 72 hours of incubation at 37° C., with or without CO2, under aerobic or anaerobic conditions, depending on the bacterial species, halo of growth inhibition were obtained and evaluated.
(§4) Interpretation of susceptibility and resistance was based on the presence or absence of a zone of inhibition surrounding the disk. Kirby-Bauer disk diffusion susceptibility test is a common method which uses antibiotic-impregnated wafers to test whether bacteria are affected by antibiotics. The size of the zone of inhibition depends on how effective the antibiotic is at stopping the growth of the bacterium. A stronger antibiotic will create a larger zone, because a lower concentration of the antibiotic is enough to stop growth.
(§5) All compounds were tested at 300 μg/disc.

N. carnea = test: Kirby-Bauer disk diffusion susceptibility test; conditions: 300 μg/disc
Method: as §1, §2, §3, §4, §5

N. cyriacigeorgica = test: Kirby-Bauer disk diffusion susceptibility test; conditions: 300 μg/disc
Method: as §1, §2, §3, §4, §5

S. pneumoniae = test: Kirby-Bauer disk diffusion susceptibility test; conditions: 300 μg/disc
Method: as §1, §2, §3, §4, §5

T. pulmonis = test: Kirby-Bauer disk diffusion susceptibility test; conditions: 300 μg/disc
Method: as §1, §2, §3, §4, §5

A. flavus = test: Antifungal disk diffusion susceptibility test (CLSI M44); conditions: Aspergillus flavus, A. flavus; for zone of inhibition at 150 µg/disc: 150 μg/disc; for zone of inhibition at 500 µg/disc: 500 μg/disc
Method: (§6) Filamentous fungi and yeasts strains, from clinical origin, were supplied by Microbiology Service from The Princess Hospital, Madrid. They are detailed in Table IX.
(§7) Filamentous fungi and yeast cells suspensions in distilled water was prepared from a culture of 24-48 h, depending on species, in Sabouraud agar. Each suspension was adjusted to a fixed size inoculum of 1-5×10^8 CFU/ml with a spectrophotometer (Ferraro, MJ National Committee for Clinical Laboratory Standards. 2000).
(§8) Antifungal susceptibility tests were developed following the standardized methodology detailed in document CLSI: M44-4: Method for Antifungal Disk diffusion susceptibility testing of yeasts consisting of disk diffusion on agar Muller-Hinton (supplemented with 2% glucose).

A. fumigatus = test: as above; conditions: Aspergillus fumigatus, A. fumigatus; for zone of inhibition at 150 µg/disc: 150 μg/disc; for zone of inhibition at 500 µg/disc: 500 μg/disc
Method: as §6, §7, §8

A. niger = test: as above; conditions: Aspergillus niger, A. niger; for zone of inhibition at 150 µg/disc: 150 μg/disc; for zone of inhibition at 500 µg/disc: 500 μg/disc
Method: as §6, §7, §8

A. terreus = test: as above; conditions: Aspergillus terreus, A. terreus; for zone of inhibition at 150 µg/disc: 150 μg/disc; for zone of inhibition at 500 µg/disc: 500 μg/disc
Method: as §6, §7, §8

C. albicans = test: as above; conditions: Candida albicans, C. albicans; for zone of inhibition at 150 µg/disc: 150 μg/disc; for zone of inhibition at 500 µg/disc: 500 μg/disc
Method: as §6, §7, §8

C. guillermondii = test: as above; conditions: C. guillermondii; for zone of inhibition at 150 µg/disc: 150 μg/disc; for zone of inhibition at 500 µg/disc: 500 μg/disc
Method: as §6, §7, §8

C. lusitaniae = test: as above; conditions: Clavispora lusitaniae, C. lusitaniae; for zone of inhibition at 150 µg/disc: 150 μg/disc; for zone of inhibition at 500 µg/disc: 500 μg/disc
Method: as §6, §7, §8

C. parapsilosis = test: as above; conditions: Lodderomyces parapsilosis, C. parapsilosis; for zone of inhibition at 150 µg/disc: 150 μg/disc; for zone of inhibition at 500 µg/disc: 500 μg/disc
Method: as §6, §7, §8

C. tropicalis = test: as above; conditions: Candida tropicalis, C. tropicalis; for zone of inhibition at 150 µg/disc: 150 μg/disc; for zone of inhibition at 500 µg/disc: 500 μg/disc
Method: as §6, §7, §8

S. cerevisiae = test: as above; conditions: Saccharomyces cerevisiae, S. cerevisiae; for zone of inhibition at 150 µg/disc: 150 μg/disc; for zone of inhibition at 500 µg/disc: 500 μg/disc
Method: as §6, §7, §8

K. pneumoniae = test: Kirby-Bauer disk diffusion susceptibility test; conditions: 300 μg/disc
Method: as §1, §2, §3, §4, §5

SMILES	zone of inhibition at 150 µg/disc (A. flavus)	zone of inhibition at 500 µg/disc (A. flavus)	zone of inhibition at 150 µg/disc (A. fumigatus)	zone of inhibition at 500 µg/disc (A. fumigatus)	zone of inhibition at 150 µg/disc (A. niger)	zone of inhibition at 500 µg/disc (A. niger)	zone of inhibition at 150 µg/disc (A. terreus)	zone of inhibition at 500 µg/disc (A. terreus)	zone of inhibition at 150 µg/disc (C. albicans)	zone of inhibition at 500 µg/disc (C. albicans)	zone of inhibition at 150 µg/disc (C. guillermondii)	zone of inhibition at 500 µg/disc (C. guillermondii)	zone of inhibition at 150 µg/disc (C. lusitaniae)	zone of inhibition at 500 µg/disc (C. lusitaniae)	zone of inhibition at 150 µg/disc (C. parapsilosis)	zone of inhibition at 500 µg/disc (C. parapsilosis)	zone of inhibition at 150 µg/disc (C. tropicalis)	zone of inhibition at 500 µg/disc (C. tropicalis)	zone of inhibition at 150 µg/disc (S. cerevisiae)	zone of inhibition at 500 µg/disc (S. cerevisiae)	further results
NNC(=O)C(=O)NNc1ccc(Cl)cc1 [MSG-214]	< 10 mm	< 10 mm	< 10 mm	16 mm	10 mm	> 40 mm	< 10 mm	17 mm	40 mm	> 40 mm	15 mm	> 40 mm	42 mm	> 40 mm	15 mm	> 40 mm	34 mm	> 40 mm	15 mm	32 mm	Activity detected (mm) (A. baumannii): 12 mm; Activity detected (mm) (N. carnea): 14 mm; Activity detected (mm) (N. cyriacigeorgica): 25 mm; Activity detected (mm) (S. pneumoniae): 11 mm; Activity detected (mm) (T. pulmonis): 30 mm
NNC(=O)C(=O)NNc1ccc(Br)cc1 [MSG-216]	< 10 mm	< 10 mm	< 10 mm	10 mm	10 mm	36 mm	< 10 mm	10 mm	24 mm	> 40 mm	13 mm	> 40 mm	36 mm	> 40 mm	11 mm	> 40 mm	26 mm	> 40 mm	19 mm	35 mm	Activity detected (mm) (A. baumannii): 12 mm; Activity detected (mm) (K. pneumoniae): 11 mm; Activity detected (mm) (N. carnea): 14 mm; Activity detected (mm) (N. cyriacigeorgica): 17 mm; Activity detected (mm) (T. pulmonis): 25 mm
Cc1ccc(NNC(=O)C(=O)NN)cc1 [MSG-218]	< 10 mm	< 10 mm	< 10 mm	10 mm	22 mm	30 mm	< 10 mm	10 mm	24 mm	> 40 mm	22 mm	40 mm	22 mm	46 mm	25 mm	36 mm	10 mm	40 mm	24 mm	34 mm	Activity detected (mm) (A. baumannii): 15 mm; Activity detected (mm) (T. pulmonis): 33 mm
COc1cccc(NNC(=O)C(=O)NN)c1 [MSG-227]	25 mm	> 40 mm	11 mm	> 40 mm	32 mm	> 40 mm	> 40 mm	> 40 mm	26 mm	> 40 mm	> 40 mm	> 40 mm	> 40 mm	> 40 mm	31 mm	> 40 mm	26 mm	> 40 mm	20 mm	25 mm	–
